Reference: PubChem BioAssay AID1996
In brackets after ≈: the same amount, converted by molar mass.

Conditions: buffer; pH 7.4; 200.0 µM

Structure (SMILES)	solubility kinetic [µg/mL]
CCC1(C)Cc2c(sc3nc(SC)[nH]c(=O)c23)CO1 (stereo not given)	7.9 (≈ 26.7 µM)
N/C(=N\OC(=O)Cc1cccs1)c1ccc(Cl)cc1	5.8 (≈ 19.7 µM)
O=C(COc1ccc(Cl)cc1)NCc1ccccc1	25.6 (≈ 92.8 µM)
COc1ccc(CNc2nc3ccccc3n2C)c(OC)c1	> 44.6
CC(C)(C)C(=O)Nc1ccc(S(=O)(=O)Nc2nccs2)cc1	> 50.9
O=C(O)c1ccc2c(c1)C(=O)N(c1nccs1)C2=O	> 41.1
O=C(CS(=O)(=O)c1ccccc1)Nc1cccnc1	> 41.4
Cc1cc(C(=O)Nc2cccc(C)c2C)c2ccccc2n1	40.1 (≈ 138 µM)
CCOc1ccc(NC(=O)CSc2ncn[nH]2)cc1	> 41.7
CCOc1cc(C2NC(=O)NC2=O)ccc1O (stereo not given)	> 35.4
Cc1noc(C(=O)Nc2ccc(F)c(Cl)c2)c1Cl	1.4 (≈ 4.84 µM)
COc1ccc(NC(=S)Nc2ccc(F)cc2)cc1	27.7 (≈ 100 µM)
O=C(Nc1cccc(Cl)c1)N1CCc2ccccc2C1	1.9 (≈ 6.63 µM)
CC(=O)N(Cc1nc2sc(C)c(C)c2c(=O)[nH]1)C1CCCC1	19.5 (≈ 61 µM)
Cc1cccc(NC(=O)/C(C#N)=C/c2ccc[nH]2)c1C	2.1 (≈ 7.92 µM)
Cc1cccc(NS(=O)(=O)c2ccc(Cl)cc2)n1	31.6 (≈ 112 µM)
COC(=O)c1oc(-c2ccc(Cl)cc2)nc1C	2 (≈ 7.95 µM)
O=C(CNC(=O)c1ccco1)NNC(=O)c1ccc(Br)cc1	> 54.9
CCC(C)NC(=O)c1ccc2c(c1)N(Cc1ccccc1)C(=O)CS2 (stereo not given)	3.6 (≈ 10.2 µM)
O=C(c1cccs1)N1CCN(c2ccc(Cl)cc2)CC1	39.2 (≈ 128 µM)

Structure (SMILES)	solubility kinetic [µg/mL]
CC1CCC(NC(=O)CCNC(=O)c2ccccc2)CC1 (stereo not given)	> 43.3
COc1cc(OC)c(C(=O)NCC2CCCO2)cc1OC (stereo not given)	> 44.3
O=Cc1cn(CC(=O)N2CCCCCC2)c2ccccc12	> 42.7
CC1(c2ccc3noc(-c4cccc(F)c4)c3c2)OCCO1	< 0.6
COc1ccc(OCC(=O)NC2CCCCCCC2)cc1	37.7 (≈ 129 µM)
CN1CCN(CC(=O)Nc2nc3ccccc3s2)CC1.O=CO	50.4
CCc1ccccc1NC(=O)CCOc1ccccc1	39 (≈ 145 µM)
O=S(=O)(Cc1noc(-c2ccccc2Cl)n1)c1ccccn1	37.2 (≈ 111 µM)
CC1(c2ccccc2)CC(C)(C)N(C(N)=O)c2ccccc21 (stereo not given)	40.9 (≈ 139 µM)
N#CCC(=O)Nc1ccc(C(=O)Nc2cccnc2)cc1	> 42
O=C(Cn1cccc(C(F)(F)F)c1=O)c1ccc(Cl)cc1	> 47.4
COc1ccc(OC)c(-c2csc(-c3cccs3)n2)c1	< 0.6
O=C(COC(=O)c1cc(=O)[nH]c2ccccc12)c1ccccc1	8.8 (≈ 28.6 µM)
NC(=O)c1ccc(N2CCN(S(=O)(=O)c3cccs3)CC2)c([N+](=O)[O-])c1	2.3 (≈ 5.8 µM)
CCC(=O)Nc1ccc2nc3c(=O)[nH]c(=S)[nH]c3nc2c1	> 45.2
CCNC(=O)c1ccc(CSc2nc3ccccc3s2)cc1	6.7 (≈ 20.4 µM)
CC(C)OC(=O)C(C)Nc1ccc(F)c(Cl)c1 (stereo not given)	5.8 (≈ 22.3 µM)
O=C(CSc1ncccn1)N1CCCCCC1	> 37.7
CCCN1CCC(NC(=O)C2CCN(C(C)=O)CC2)CC1	> 44.3
O=C(O)CC/C(=N\NC(=O)CNC(=O)/C=C/c1ccccc1)c1ccccc1	> 56.9

Structure (SMILES)	solubility kinetic [µg/mL]
CC(=O)c1ccc(NC(=O)C(C)Nc2ccc(Cl)cc2)cc1 (stereo not given)	40.9 (≈ 129 µM)
O=C(Nc1cccc(C(=O)Nc2ccccc2F)c1)c1ccccc1	1 (≈ 2.99 µM)
CCOC(=O)c1cc2c(ccn2C)n1Cc1ccc(C#N)cc1	2.3 (≈ 7.48 µM)
NC(=O)c1ccc(Oc2ccc(Cl)cc2)c([N+](=O)[O-])c1	2 (≈ 6.83 µM)
Cc1ccc(C(=O)N2CCN(C34CC5CC(CC(C5)C3)C4)CC2)o1	> 49.3
O=c1[nH]c2ccccc2nc1-c1ccccc1	3.9 (≈ 17.5 µM)
COc1cc(/C=C2\SC(=O)N(CCNC(=O)c3c(C)noc3C)C2=O)cc(OC)c1OC	4.8 (≈ 10.4 µM)
COc1ccc(NC(=O)CN2CCCCCC2)cc1OC	32.2 (≈ 110 µM)
O=C(CCC(=O)Nc1cccc(C(F)(F)F)c1)NCC1CCCO1 (stereo not given)	> 51.6
O=C(NCCCn1ccnc1)c1ccc(-c2ccccc2)cc1	> 45.8
CN(C)CCCNC(=S)Nc1ccc(Br)cc1	> 47.4
COC(=O)c1cc(OC)c(OC)c(OC)c1[N+](=O)[O-]	38.5 (≈ 142 µM)
Cc1cc(O)cc(=O)n1Cc1ccccc1	> 32.3
O=C(NCc1ccco1)c1ccccc1	> 30.2
N#Cc1c(C(F)(F)F)cc(Cc2ccccc2)nc1SCC(=O)NCC(=O)O	> 61.4
c1ccc2c(Cn3ccnc3)cccc2c1	30.2 (≈ 145 µM)
Cc1ccc2nc(CCl)[n+]([O-])c(-c3ccccc3)c2c1	27.8 (≈ 97.6 µM)
CCCN(CCC)S(=O)(=O)c1cccc(-c2csc(C)n2)c1	8 (≈ 23.6 µM)
CC1(c2ccc3ccccc3c2)NC(=O)NC1=O (stereo not given)	29.3 (≈ 122 µM)
Cn1c(=O)c(C(=O)NCc2ccccc2)c(O)c2ccccc21	< 0.3
